This data set concerns GENE-TOX genotoxicity assays, various organisms and cells. Briefly: GENE-TOX mutagenicity studies. As to conditions: for call: Assay Type: In vivo carcinogenicity studies.
The mark [1] stands for this setting: Species/Cell Type: Bacillus subtilis (H17 vs M45), Assay Type: Rec-assay, spot test, DNA effects (bacterial DNA repair), Assay Code: REWT, Evaluation Type: Evaluation A (Pre-1980).
The mark [2] stands for this setting: Species/Cell Type: Nonhuman, Assay Type: Sister-chromatid exchange (SCE) in vitro, Assay Code: SC2+D, Dose Response: With dose response, Evaluation Type: Evaluation B (Post-1980).
The mark [3] stands for this setting: Species/Cell Type: Nonhuman, Assay Code: CCGT, Evaluation Type: Evaluation A (Pre-1980).
Where [4] appears, read: Species/Cell Type: Salmonella typhimurium (one or more of the five standard strains: TA98, TA100, TA1535, TA1537, and TA1538), Assay Type: Histidine reverse gene mutation, Ames assay, Assay Code: SAL+*, Activation: With metabolic activation, Evaluation Type: Evaluation A (Pre-1980).
The mark [5] stands for this setting: Species/Cell Type: Salmonella typhimurium (one or more of the five standard strains: TA98, TA100, TA1535, TA1537, and TA1538), Assay Type: Histidine reverse gene mutation, Ames assay, Assay Code: SAL+, Evaluation Type: Evaluation A (Pre-1980).
Setting [6] is: Species/Cell Type: Bacillus subtilis (H17 vs M45), Assay Type: Rec-assay, spot test, DNA effects (bacterial DNA repair), Assay Code: REW+, Evaluation Type: Evaluation A (Pre-1980).
Setting [7] is: Species/Cell Type: Chinese hamster lung (V79) cells, Assay Type: Forward gene mutation at the HPRT or ouabain locus, Assay Code: V79+, Evaluation Type: Evaluation A (Pre-1980).
[8] abbreviates: Species/Cell Type: Mouse prostate cells, Assay Type: Cell transformation, Assay Code: CTM-, Evaluation Type: Evaluation A (Pre-1980).

Calls of active or inactive are those of the source. The rule behind the calls is not given here.

Take `CCOC(=O)CC(SP(=S)(OC)OC)C(=O)OCC` (centres undefined): the mutagenic call is “no conclusion” under setting [1]; “inactive; negative” (Species/Cell Type: Drosophila melanogaster, Assay Type: Sex-linked recessive lethal gene mutation, Assay Code: SRL-, Evaluation Type: Evaluation A (Pre-1980)); “inactive; negative” (Species/Cell Type: Escherichia coli WP2 UVRA, Assay Type: Tryptophan reverse gene mutation, Assay Code: WPU-*, Activation: With metabolic activation, Evaluation Type: Evaluation A (Pre-1980)); “no conclusion” (Species/Cell Type: Escherichia coli polA (W3119 vs P3478), Assay Type: Rec-assay, DNA effects (bacterial DNA repair), Assay Code: RE1T, Evaluation Type: Evaluation A (Pre-1980)); “active; positive” (Species/Cell Type: Hordeum vulgare (barley), Assay Type: Chromosome aberrations, Assay Code: HOC+D, Dose Response: With dose response, Evaluation Type: Evaluation A (Pre-1980)); “inactive; negative” (Species/Cell Type: Human diploid fibroblasts, Assay Type: Unscheduled DNA synthesis (UDS) in vitro, DNA effects, Assay Code: UDH-, Evaluation Type: Evaluation A (Pre-1980)). The mutagenic call is “active; positive” (Species/Cell Type: Human, Assay Type: Sister-chromatid exchange (SCE) in vitro, Assay Code: SC1+D, Dose Response: With dose response, Evaluation Type: Evaluation A (Pre-1980)); “active; positive” (Species/Cell Type: Human, Assay Type: Sister-chromatid exchange (SCE) in vitro, Assay Code: SC1+D, Dose Response: With dose response, Evaluation Type: Evaluation B (Post-1980)); “active; positive” (Species/Cell Type: Mammalian polychromatic erythrocytes, Assay Type: Micronucleus test, chromosome aberrations, Assay Code: MNT+, Evaluation Type: Evaluation B (Post-1980)); “active; positive” under setting [2]; “inactive; negative” (Species/Cell Type: Saccharomyces cerevisiae, Assay Type: Mitotic recombination or gene conversion, Assay Code: YEH-, Evaluation Type: Evaluation A (Pre-1980)); “inactive; negative” (Species/Cell Type: Salmonella typhimurium (one or more of the five standard strains: TA98, TA100, TA1535, TA1537, and TA1538), Assay Type: Histidine reverse gene mutation, Ames assay, Assay Code: SAL-, Evaluation Type: Evaluation A (Pre-1980)). In addition, the call (Species/Cell Type: Nonhuman, Assay Code: CCG-, Evaluation Type: Evaluation A (Pre-1980)) is “inactive; negative”.

Turning to `Oc1ccc2cc3ccc4cccc5ccc(c2c1)c3c45`, the mutagenic call runs as follows: (Species/Cell Type: Chinese hamster lung (V79) cells, Assay Type: Forward gene mutation at the HPRT or ouabain locus, Assay Code: V79+/-*, Activation: With metabolic activation, Evaluation Type: Evaluation A (Pre-1980)) “inactive; positive without activation, negative with activation”; under setting [4], “active; positive”. Moreover, under setting [3], the call is listed as “no conclusion”.

Consider `Cc1c2ccccc2c(C)c2c1cc(F)c1ccccc12`, for which the mutagenic call (Species/Cell Type: Chinese hamster lung (V79) cells, Assay Type: Forward gene mutation at the HPRT or ouabain locus, Assay Code: V79-*, Activation: With metabolic activation, Evaluation Type: Evaluation A (Pre-1980)) is “inactive; negative”.

For `C/C=C/C1=CN2C(=O)c3cc(O[C@@H]4O[C@@H](C)[C@H](NC)[C@@](C)(O)[C@H]4O)c(C)c(O)c3N[C@H](O)[C@@H]2C1`, the mutagenic call (Species/Cell Type: Mammalian polychromatic erythrocytes, Assay Type: Micronucleus test, chromosome aberrations, Assay Code: MNT+U, Dose Response: Unconfirmed positive response, Evaluation Type: Evaluation B (Post-1980)) is “active; positive”.

In the case of `COc1cccc(OC)c1O`, the mutagenic call by setting is: (Species/Cell Type: Human lymphocytes, Assay Type: Sister-chromatid exchange (SCE) in vitro, Assay Code: SCLT, Evaluation Type: Evaluation B (Post-1980)) “no conclusion”; (Species/Cell Type: Human, Assay Type: Sister-chromatid exchange (SCE) in vitro, Assay Code: SC1T, Evaluation Type: Evaluation B (Post-1980)) “no conclusion”.

Consider `COc1cccc2c1C(=O)c1c(O)c3c(c(O)c1C2=O)C[C@@](O)(C(C)=O)C[C@@H]3O[C@@H]1C[C@@H](N(C)C)[C@@H](O)[C@@H](C)O1`, for which the mutagenic call (Species/Cell Type: Salmonella typhimurium (one or more of the five standard strains: TA98, TA100, TA1535, TA1537, and TA1538), Assay Type: Histidine reverse gene mutation, Ames assay, Assay Code: SALT, Evaluation Type: Evaluation A (Pre-1980)) is given as “no conclusion”.

In the case of `Cc1c2ccccc2c(C2CO2)c2ccccc12` (centres undefined), the mutagenic call under setting [5] was “active; positive”.

`CCCCN(CC(=O)CC)N=O`: the mutagenic call under setting [4] was “active; positive”.

For the molecule `CNC(=O)Nc1nc(-c2ccccc2)cs1`, the mutagenic call (Species/Cell Type: Salmonella typhimurium, Serratia marcesens, Assay Type: Forward and reverse gene mutation, host-mediated assay, Assay Code: HM2+, Evaluation Type: Evaluation A (Pre-1980)) was “active; positive”.

Turning to `[O-2].[O-2].[O-2].[Sb+3].[Sb+3]`, the mutagenic call under setting [6] was “active; positive”.

For the molecule `O[C@@H]1C=Cc2c(ccc3cc4ccccc4cc23)[C@H]1O`, the mutagenic call under setting [7] is “active; positive”, the mutagenic call under setting [2] was “active; positive” and the mutagenic call under setting [4] was “active; positive”. Besides, the call (Species/Cell Type: Nonhuman, Assay Code: CCG+L, Evaluation Type: Evaluation A (Pre-1980)) was “active; positive”.

For the molecule `O=C(O)CC[N+](=O)[O-]`, for the setting “Species/Cell Type: Fischer rat embryo (RLV/1706) cells, Assay Type: Cell transformation, viral enhanced, Assay Code: CTR+, Evaluation Type: Evaluation A (Pre-1980)”, the mutagenic call is “active; positive”. The call (Species/Cell Type: Nonhuman, Assay Code: CCG-L, Evaluation Type: Evaluation A (Pre-1980)) is “inactive; negative”.

For the molecule `O=S(O)(O)=S`, the mutagenic call (Species/Cell Type: Allium cepa, Assay Type: Chromosome aberrations, Assay Code: ALC-, Evaluation Type: Evaluation A (Pre-1980)) was “inactive; negative”.

Consider `C=CBr`, for which the mutagenic call (Species/Cell Type: Tradescantia species, Assay Type: Gene mutation, Assay Code: TRM+D, Dose Response: With dose response, Evaluation Type: Evaluation A (Pre-1980)) was “active; positive”.

For `O=C(Cl)c1ccccc1`, under setting [1], the mutagenic call is listed as “no conclusion”.

Turning to `CC(=O)Oc1cc(OC(C)=O)c2c(=O)c(OC(C)=O)c(-c3ccc(OC(C)=O)c(OC(C)=O)c3)oc2c1`, the mutagenic call under setting [4] was “active; positive”.

Turning to `Cl`, the mutagenic call reads like this: under setting [6], “active; positive”; (Species/Cell Type: Bacillus subtilis (H17 vs M45), Assay Type: Rec-assay, spot test, DNA effects (bacterial DNA repair), Assay Code: REW-, Evaluation Type: Evaluation A (Pre-1980)) “inactive; negative”; (Species/Cell Type: Syrian hamster embryo (SA7/SHE) cells, Assay Type: Cell transformation, viral enhanced, Assay Code: CT7-, Evaluation Type: Evaluation A (Pre-1980)) “inactive; negative”.

Turning to `CCN(CC)Cc1cc(CC(=O)NN)ccc1OC`, for the setting “Species/Cell Type: Saccharomyces cerevisiae, Assay Type: Reverse gene mutation, Assay Code: YERT, Evaluation Type: Evaluation A (Pre-1980)”, the mutagenic call is “no conclusion”.

Take `Cc1ccc2cc3c(c4c2c1CC4)[C@H](O)[C@@H](O)c1ccccc1-3`: the mutagenic call by setting is: (Species/Cell Type: Chinese hamster lung (V79) cells, Assay Type: Forward gene mutation at the HPRT or ouabain locus, Assay Code: V79-, Evaluation Type: Evaluation A (Pre-1980)) “inactive; negative”; under setting [8], “inactive; negative”; under setting [4], “active; positive”. The call under setting [3] is “no conclusion”.

Take `O[C@@H]1c2ccc3cc4ccccc4cc3c2[C@@H]2OC2[C@@H]1O` (some centres undefined): the mutagenic call under setting [7] was “active; positive”.

In the case of `Cc1c([N+](=O)[O-])cc[n+]([O-])c1C`, the mutagenic call (Species/Cell Type: Escherichia coli polA (W3119 vs P3478), Assay Type: Rec-assay, DNA effects (bacterial DNA repair), Assay Code: RE1+, Evaluation Type: Evaluation A (Pre-1980)) is “active; positive”.

As for `Cc1ccc2ccc3c(C)c4ccccc4c4ccc1c2c34`, the mutagenic call (Species/Cell Type: Drosophila melanogaster, Assay Type: Sex-linked recessive lethal gene mutation, Assay Code: SRLT, Evaluation Type: Evaluation A (Pre-1980)) is given as “no conclusion”.

On to `C[CH2][Hg][S]c1ccccc1C(=O)O`, for which the mutagenic call (Species/Cell Type: Saccharomyces cerevisiae, Assay Type: Mitotic recombination or gene conversion, Assay Code: YEC+, Evaluation Type: Evaluation A (Pre-1980)) was “active; positive”.

On to `c1cc2ccc3cc4c(c5ccc(c1)c2c35)[C@H]1O[C@H]1CC4`, for which the mutagenic call runs as follows: under setting [7], “active; positive”; under setting [8], “inactive; negative”; under setting [5], “active; positive”. Also, the call under setting [3] is given as “no conclusion”.

For the molecule `C[C@@H]1O[C@@H](OC[C@H]2O[C@@H](Oc3c(-c4ccc(O)c(O)c4)oc4cc(O)cc(O)c4c3=O)[C@H](O)[C@@H](O)[C@@H]2O)[C@H](O)[C@H](O)[C@H]1O`, where the note is “Species/Cell Type: Mammalian polychromatic erythrocytes, Assay Type: Micronucleus test, chromosome aberrations, Assay Code: MNTT, Evaluation Type: Evaluation B (Post-1980)”, the mutagenic call is given as “no conclusion”.

Take `CCN(CCCC(=O)O)N=O`: under setting [5], the mutagenic call is “active; positive”.

On to `O.O.O.O.O.O.[Cl-].[Cl-].[Ni+2]`, for which the mutagenic call (Species/Cell Type: Nonhuman, Assay Type: Sister-chromatid exchange (SCE) in vitro, Assay Code: SC2+, Evaluation Type: Evaluation B (Post-1980)) was “active; positive”.
